Data: the NIST ThermoML archive (doi:10.1016/j.jct.2011.09.007)
± gives the expanded uncertainty stated by the source.

What was measured:
[1] = refractive index (Na D-line) (dimensionless); conditions: 298.15 K; 101.33 kPa; Liquid; Standard Abbe refractometry
[2] = Liquid; for mass density: 298.15 K, 101.33 kPa, Vibrating tube method; for vapor or sublimation pressure: Ebulliometric method (Recirculating still)

Structure (SMILES)	refractive index [1]	mass density [2]	vapor or sublimation pressure ([2]; 330 K)	vapor or sublimation pressure ([2]; 340 K)	vapor or sublimation pressure ([2]; 330.04 K)	vapor or sublimation pressure ([2]; 331.02 K)	vapor or sublimation pressure ([2]; 337.07 K)	vapor or sublimation pressure ([2]; 340.05 K)	vapor or sublimation pressure ([2]; 340.57 K)	vapor or sublimation pressure ([2]; 343.73 K)	vapor or sublimation pressure ([2]; 347.76 K)	vapor or sublimation pressure ([2]; 351.12 K)	vapor or sublimation pressure ([2]; 365.8 K)	vapor or sublimation pressure ([2]; 371.23 K)	vapor or sublimation pressure ([2]; 373.22 K)	vapor or sublimation pressure ([2]; 375.59 K)	vapor or sublimation pressure ([2]; 378.26 K)	vapor or sublimation pressure ([2]; 381.01 K)	vapor or sublimation pressure ([2]; 382.94 K)	vapor or sublimation pressure ([2]; 384.94 K)
CC(C)O [propan-2-ol]	1.37504 ± 0.00072	780.91 ± 0.16 kg/m3	33.25 ± 0.23 kPa	52.97 ± 0.29 kPa	–	–	–	–	–	–	–	–	–	–	–	–	–	–	–	–
CC(C)CC(C)(C)C [2,2,4-trimethylpentane]	1.38894 ± 0.00072	687.79 ± 0.2 kg/m3	25.47 ± 0.16 kPa	36.64 ± 0.2 kPa	–	–	–	–	–	–	–	–	–	–	–	–	–	–	–	–
CC(C)C(=O)C(C)C [2,4-dimethyl-3-pentanone]	1.3974 ± 0.0007	798.8 ± 0.21 kg/m3	8.87 ± 0.04 kPa	13.55 ± 0.06 kPa	8.87 ± 0.04 kPa	9.28 ± 0.04 kPa	12.02 ± 0.05 kPa	13.58 ± 0.06 kPa	13.89 ± 0.06 kPa	15.78 ± 0.06 kPa	18.48 ± 0.07 kPa	21.02 ± 0.08 kPa	35.36 ± 0.11 kPa	42.49 ± 0.14 kPa	45.36 ± 0.15 kPa	49 ± 0.16 kPa	53.37 ± 0.18 kPa	58.22 ± 0.19 kPa	61.82 ± 0.2 kPa	65.74 ± 0.21 kPa
